Experimental findings from ChEMBL document CHEMBL1130939, “Alkyl side-chain derivatives of sordaricin as potent antifungal agents against yeast” (Bioorg Med Chem Lett, 1998) are described below.

The assay has as its system Saccharomyces cerevisiae. Description: Antifungal activity against Saccharomyces cerevisiae (strain YPH98). Format: functional, organism-based.

≈ marks a conversion by molar mass, not a printed value.

For the compound `CCCCOC[C@]12CC3C(C)CCC3[C@@]3(C=O)CC1C=C(C(C)C)[C@@]23C(=O)O` (stereo partly specified), it took 0.1 ng/mL (≈ 0.257 nM) to reach half-maximal inhibition (IC50).
The compound `CCCCCCCOC[C@]12CC3C(C)CCC3[C@@]3(C#N)CC1C=C(C(C)C)[C@@]23C(=O)O` (stereo partly specified) came in with an IC50 of 100 ng/mL (≈ 234 nM).
Compound `COC1C(C)OC(OCC23CC4C(C)CCC4[C@@]4(C#N)C[C@@H]2C=C(C(C)C)[C@@]34C(=O)O)C(O)C1O` (stereo partly specified) displayed a 50% inhibitory concentration (IC50) of 2000 ng/mL (≈ 4080 nM). This IC50 is about 20-fold higher than that of the compound before.
In turn, `CO[C@H]1[C@@H](O)[C@H](O)[C@H](OC[C@@]23C[C@@H]4[C@H](C)CC[C@H]4[C@@]4(C=O)CC2C=C(C(C)C)[C@@]34C(=O)O)O[C@@H]1C` [SORDARIN] registered an IC50 of 10000 ng/mL (≈ 20300 nM).
Regarding `CCCCCCCCOC[C@]12CC3C(C)CCC3[C@@]3(C#N)CC1C=C(C(C)C)[C@@]23C(=O)O` (stereo partly specified), inhibition was half-maximal at 200 ng/mL (≈ 453 nM) (IC50). Compared with the last compound, the IC50 is about 50-fold lower.
Regarding `CCCOC[C@]12CC3C(C)CCC3[C@@]3(C#N)CC1C=C(C(C)C)[C@@]23C(=O)O` (stereo partly specified), inhibition was half-maximal at 90 ng/mL (≈ 242 nM) (IC50).
With `CC(C)CCOC[C@]12CC3C(C)CCC3[C@@]3(C#N)CC1C=C(C(C)C)[C@@]23C(=O)O` (stereo partly specified) the figure was 0.01 ng/mL (≈ 0.025 nM); with `CCOC[C@]12CC3C(C)CCC3[C@@]3(C#N)CC1C=C(C(C)C)[C@@]23C(=O)O` (stereo partly specified), 500 ng/mL (≈ 1400 nM); with `CCOC[C@]12CC3C(C)CCC3[C@@]3(C=O)CC1C=C(C(C)C)[C@@]23C(=O)O` (stereo partly specified), 60 ng/mL (≈ 166 nM).
Take `CCCCCOC[C@]12CC3C(C)CCC3[C@@]3(C#N)CC1C=C(C(C)C)[C@@]23C(=O)O` (stereo partly specified): the IC50 is 0.01 ng/mL (≈ 0.025 nM). Compared with the last compound, the IC50 is about 6000-fold lower.
The compound `COC[C@]12CC3C(C)CCC3[C@@]3(C=O)CC1C=C(C(C)C)[C@@]23C(=O)O` (stereo partly specified) showed an IC50 of 100 ng/mL (≈ 289 nM).
In the case of `CC(C)CCOC[C@]12CC3C(C)CCC3[C@@]3(C=O)CC1C=C(C(C)C)[C@@]23C(=O)O` (stereo partly specified) it was 0.01 ng/mL (≈ 0.0248 nM); in that of `CCCCCCCCOC[C@]12CC3C(C)CCC3[C@@]3(C=O)CC1C=C(C(C)C)[C@@]23C(=O)O` (stereo partly specified), 400 ng/mL (≈ 900 nM).
In the case of `CCCCCOC[C@]12CC3C(C)CCC3[C@@]3(C=O)CC1C=C(C(C)C)[C@@]23C(=O)O` (stereo partly specified), the IC50 came out at 0.01 ng/mL (≈ 0.0248 nM).
In the case of `CCCCCCCCCOC[C@]12CC3C(C)CCC3[C@@]3(C#N)CC1C=C(C(C)C)[C@@]23C(=O)O` (stereo partly specified), the half-maximal inhibitory concentration (IC50) amounted to 1000 ng/mL (≈ 2190 nM).
With `COC[C@]12CC3C(C)CCC3[C@@]3(C#N)CC1C=C(C(C)C)[C@@]23C(=O)O` (stereo partly specified) the figure was 1000 ng/mL (≈ 2910 nM); with `CCCCCCOC[C@]12CC3C(C)CCC3[C@@]3(C=O)CC1C=C(C(C)C)[C@@]23C(=O)O` (stereo partly specified), 15 ng/mL (≈ 36 nM); with `CCCCCCOC[C@]12CC3C(C)CCC3[C@@]3(C#N)CC1C=C(C(C)C)[C@@]23C(=O)O` (stereo partly specified), 0.3 ng/mL (≈ 0.725 nM).
Compound `CCCCOC[C@]12CC3C(C)CCC3[C@@]3(C#N)CC1C=C(C(C)C)[C@@]23C(=O)O` (stereo partly specified) showed an IC50 of 30 ng/mL (≈ 77.8 nM).
In the case of `CCCCCCCOC[C@]12CC3C(C)CCC3[C@@]3(C=O)CC1C=C(C(C)C)[C@@]23C(=O)O` (stereo partly specified), the IC50 came out at 300 ng/mL (≈ 697 nM).
Consider `CC(C)C1=CC2C[C@]3(C=O)C4CCC(C)C4C[C@]2(CO)[C@]13C(=O)O` (stereo partly specified) [SORDARICIN], for which the IC50 is above 250000 ng/mL.
In the case of `CC(C)COC[C@]12CC3C(C)CCC3[C@@]3(C#N)CC1C=C(C(C)C)[C@@]23C(=O)O` (stereo partly specified), the half-maximal inhibitory concentration (IC50) is 30 ng/mL (≈ 77.8 nM).
Regarding `CC(C)COC[C@]12CC3C(C)CCC3[C@@]3(C=O)CC1C=C(C(C)C)[C@@]23C(=O)O` (stereo partly specified), the concentration for half-maximal inhibition (IC50) is 0.1 ng/mL (≈ 0.257 nM). Compared with the last compound, the IC50 is about 300-fold lower.
As for `CC(C)C1=CC2C[C@]3(C#N)C4CCC(C)C4C[C@]2(CO)[C@]13C(=O)O` (stereo partly specified), the IC50 stood at 20000 ng/mL (≈ 60700 nM).
On to `CCCOC[C@]12CC3C(C)CCC3[C@@]3(C=O)CC1C=C(C(C)C)[C@@]23C(=O)O` (stereo partly specified), for which half-maximal inhibition (IC50) was put at 60 ng/mL (≈ 160 nM).
`CCCCCCCCCOC[C@]12CC3C(C)CCC3[C@@]3(C=O)CC1C=C(C(C)C)[C@@]23C(=O)O` (stereo partly specified): the half-maximal inhibitory concentration (IC50) was determined as 50000 ng/mL (≈ 109000 nM).

Broadly, the IC50 is the midpoint of a concentration-inhibition curve.
